Measured values taken from ChEMBL document CHEMBL4011620, “Design and Discovery of N-(2-Methyl-5'-morpholino-6'-((tetrahydro-2H-pyran-4-yl)oxy)-[3,3'-bipyridin]-5-yl)-3-(trifluoromethyl)benzamide (RAF709): A Potent, Selective, and Efficacious RAF Inhibitor Targeting RAS Mutant Cancers” (J Med Chem, 2017).
Converted amounts (≈) assume the structure as drawn.

Tests used:
[1] = target: T1, RAF proto-oncogene serine/threonine-protein kinase (Homo sapiens, UniProt P04049); assay: Activation of CRAF in human Calu6 cells assessed as increase in MEK phosphorylation at 3 uM after 2 hrs by FRET assay; format: cell-based
[2] = Clearance in Sprague-Dawley rat 1 mg/kg, iv or 3 mg/kg, po; format: ADME, organism-based; settings: in vivo
Calu-6 = assay: Antiproliferative activity against human Calu6 cells harboring KRAS Q61K mutant assessed as reduction cell viability after 72 hrs by CellTiter-Glo assay; format: functional, cell-based; settings: Calu-6, 72 h
[3] = test system: Serine/threonine-protein kinase B-raf (Homo sapiens), P15056 [V600E]; assay: Binding affinity to human BRAF V600E mutant (429 to 741 residues) expressed in mammalian expression system at 1 uM by kinome scan assay relative to control
[4] = Oral bioavailability in Sprague-Dawley rat at 3 mg/kg; format: ADME, organism-based; settings: in vivo
[5] = Cmax in Sprague-Dawley rat at 3 mg/kg, po; format: ADME, organism-based; design: dose 3 mg/kg, route oral; settings: in vivo
[6] = Intrinsic clearance in rat liver microsomes; format: ADME, microsome; settings: read-out: CLH
[7] = target: Serine/threonine-protein kinase B-raf (Homo sapiens, UniProt P15056); assay: Binding affinity to human BRAF (429 to 741 residues) expressed in mammalian expression system at 1 uM by kinome scan assay relative to control
[8] = Apparent permeability across apical to basolateral side in human Caco2 cells at pH 7.4 by LC/MS/MS analysis; settings: Caco-2, pH 7.4
[9] = AUC in Sprague-Dawley rat at 3 mg/kg, po; format: ADME, organism-based; settings: in vivo
[10] = Intrinsic clearance in human liver microsomes; format: ADME, microsome; settings: read-out: CLH
[11] = Apparent permeability across basolateral to apical side in human Caco2 cells at pH 7.4 by LC/MS/MS analysis; settings: Caco-2, pH 7.4
[12] = Solubility of compound at pH 6.8 by shake-flask assay; settings: buffer
[13] = target: Platelet-derived growth factor receptor alpha (Homo sapiens) (UniProt P16234); assay: Binding affinity to human PDGFRalpha (330 to 640 residues) expressed in mammalian expression system at 1 uM by kinome scan assay relative to control
[14] = target: T1, RAF proto-oncogene serine/threonine-protein kinase; assay: Inhibition CRAF in human Calu6 cells assessed as decrease in MEK phosphorylation after 2 hrs by HTRF method; format: cell-based
[15] = target: RAF proto-oncogene serine/threonine-protein kinase (Homo sapiens, UniProt P04049, Y340E/Y341E); assay: Inhibition of CRAF Y340E/Y341E mutant (unknown origin) using human MEK1 K97R mutant as substrate pretreated for 30 mins followed by substrate addition measured after 40 mins by alphascreen assay
Sequence of RAF proto-oncogene serine/threonine-protein kinase (Homo sapiens, UniProt P04049, Y340E/Y341E) (P04049 whole entry Y340E/Y341E): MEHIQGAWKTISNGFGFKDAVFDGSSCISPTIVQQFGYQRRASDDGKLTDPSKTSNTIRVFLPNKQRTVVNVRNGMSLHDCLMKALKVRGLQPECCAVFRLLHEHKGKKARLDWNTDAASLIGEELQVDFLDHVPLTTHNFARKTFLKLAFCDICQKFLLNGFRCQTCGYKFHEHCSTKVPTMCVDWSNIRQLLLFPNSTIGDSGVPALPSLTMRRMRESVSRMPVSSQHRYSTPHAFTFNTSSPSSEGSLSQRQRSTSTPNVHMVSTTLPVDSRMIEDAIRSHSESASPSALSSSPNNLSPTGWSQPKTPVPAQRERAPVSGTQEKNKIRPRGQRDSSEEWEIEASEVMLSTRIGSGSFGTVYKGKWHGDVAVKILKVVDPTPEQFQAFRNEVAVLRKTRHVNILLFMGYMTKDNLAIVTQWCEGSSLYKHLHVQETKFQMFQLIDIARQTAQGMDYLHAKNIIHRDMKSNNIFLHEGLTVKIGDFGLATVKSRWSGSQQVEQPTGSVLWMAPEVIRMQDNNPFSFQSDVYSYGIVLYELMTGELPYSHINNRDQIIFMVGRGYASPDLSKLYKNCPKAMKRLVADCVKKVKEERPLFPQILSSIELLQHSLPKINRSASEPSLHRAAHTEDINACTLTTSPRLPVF

T1 sequence (P04049 whole entry): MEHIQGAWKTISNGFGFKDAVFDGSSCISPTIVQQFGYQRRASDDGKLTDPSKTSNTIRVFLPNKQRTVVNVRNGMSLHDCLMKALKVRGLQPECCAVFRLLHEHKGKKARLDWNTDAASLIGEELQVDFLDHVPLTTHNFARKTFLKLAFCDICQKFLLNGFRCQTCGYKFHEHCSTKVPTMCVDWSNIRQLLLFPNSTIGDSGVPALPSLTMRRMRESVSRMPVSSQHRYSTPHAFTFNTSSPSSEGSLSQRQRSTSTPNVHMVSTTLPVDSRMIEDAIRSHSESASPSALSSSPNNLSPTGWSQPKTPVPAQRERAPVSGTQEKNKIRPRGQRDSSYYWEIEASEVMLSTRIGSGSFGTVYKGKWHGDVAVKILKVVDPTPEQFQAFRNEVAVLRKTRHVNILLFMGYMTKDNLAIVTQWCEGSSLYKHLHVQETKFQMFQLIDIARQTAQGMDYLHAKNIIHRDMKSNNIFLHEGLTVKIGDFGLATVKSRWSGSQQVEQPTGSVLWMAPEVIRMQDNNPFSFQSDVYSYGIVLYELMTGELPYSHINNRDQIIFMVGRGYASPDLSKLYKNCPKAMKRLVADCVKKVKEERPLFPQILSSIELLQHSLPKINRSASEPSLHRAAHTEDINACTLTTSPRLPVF
Sequence of Platelet-derived growth factor receptor alpha (Homo sapiens) (P16234 whole entry, the tested form may be a part): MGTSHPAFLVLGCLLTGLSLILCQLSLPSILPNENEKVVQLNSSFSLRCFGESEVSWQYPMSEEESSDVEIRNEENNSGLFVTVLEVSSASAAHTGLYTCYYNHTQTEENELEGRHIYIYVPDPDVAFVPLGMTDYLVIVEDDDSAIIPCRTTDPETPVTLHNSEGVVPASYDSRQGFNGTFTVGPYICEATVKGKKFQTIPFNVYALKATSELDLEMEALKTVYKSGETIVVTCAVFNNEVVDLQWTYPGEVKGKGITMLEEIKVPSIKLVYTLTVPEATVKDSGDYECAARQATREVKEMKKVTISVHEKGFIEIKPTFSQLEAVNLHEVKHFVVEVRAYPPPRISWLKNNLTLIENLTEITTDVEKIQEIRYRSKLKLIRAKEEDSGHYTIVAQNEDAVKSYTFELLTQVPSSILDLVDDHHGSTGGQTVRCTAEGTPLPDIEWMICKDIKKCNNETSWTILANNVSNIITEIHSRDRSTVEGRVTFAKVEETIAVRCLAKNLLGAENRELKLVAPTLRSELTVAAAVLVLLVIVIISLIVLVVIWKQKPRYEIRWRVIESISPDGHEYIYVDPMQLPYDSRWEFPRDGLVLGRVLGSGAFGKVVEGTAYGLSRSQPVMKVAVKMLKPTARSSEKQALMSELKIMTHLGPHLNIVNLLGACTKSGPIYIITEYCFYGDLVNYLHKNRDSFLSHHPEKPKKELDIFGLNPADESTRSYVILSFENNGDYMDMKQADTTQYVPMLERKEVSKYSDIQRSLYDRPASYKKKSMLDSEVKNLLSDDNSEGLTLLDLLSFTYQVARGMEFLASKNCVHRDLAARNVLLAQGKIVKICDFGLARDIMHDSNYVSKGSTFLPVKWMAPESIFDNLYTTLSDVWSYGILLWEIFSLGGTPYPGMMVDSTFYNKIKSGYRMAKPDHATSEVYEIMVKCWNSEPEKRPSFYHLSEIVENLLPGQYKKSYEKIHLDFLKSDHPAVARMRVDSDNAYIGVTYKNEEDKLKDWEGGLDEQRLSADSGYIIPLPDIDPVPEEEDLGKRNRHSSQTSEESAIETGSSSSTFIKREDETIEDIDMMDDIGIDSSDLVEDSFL
Sequence of Serine/threonine-protein kinase B-raf (Homo sapiens), P15056 [V600E] (P15056 whole entry V600E, the tested form may be a part): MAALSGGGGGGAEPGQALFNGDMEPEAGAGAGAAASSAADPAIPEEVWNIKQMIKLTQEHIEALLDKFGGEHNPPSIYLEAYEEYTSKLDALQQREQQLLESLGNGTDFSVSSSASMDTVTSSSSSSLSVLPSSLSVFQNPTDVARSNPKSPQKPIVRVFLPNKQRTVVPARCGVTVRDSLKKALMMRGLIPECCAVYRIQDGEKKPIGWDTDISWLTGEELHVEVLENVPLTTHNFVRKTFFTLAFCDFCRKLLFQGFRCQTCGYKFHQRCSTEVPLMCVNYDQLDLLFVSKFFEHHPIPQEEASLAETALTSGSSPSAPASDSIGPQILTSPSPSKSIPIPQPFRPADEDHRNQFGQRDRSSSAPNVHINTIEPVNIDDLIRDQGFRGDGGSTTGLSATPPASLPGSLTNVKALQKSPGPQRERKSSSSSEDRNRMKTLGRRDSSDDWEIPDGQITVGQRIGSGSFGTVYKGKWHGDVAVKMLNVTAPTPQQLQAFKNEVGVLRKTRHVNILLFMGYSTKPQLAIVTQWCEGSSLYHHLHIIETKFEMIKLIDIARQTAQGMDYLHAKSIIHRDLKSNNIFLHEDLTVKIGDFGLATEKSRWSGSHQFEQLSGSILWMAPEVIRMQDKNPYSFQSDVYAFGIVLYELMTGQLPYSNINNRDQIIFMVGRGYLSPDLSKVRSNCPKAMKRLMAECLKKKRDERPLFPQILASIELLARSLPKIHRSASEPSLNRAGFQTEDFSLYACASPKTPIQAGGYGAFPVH
Sequence of Serine/threonine-protein kinase B-raf (P15056 whole entry, the tested form may be a part): as the sequence (P15056 whole entry V600E, the tested form may be a part) above, with E600V counted along it

For CCCS(=O)(=O)Nc1ccc(F)c(C(=O)c2c[nH]c3ncc(-c4ccc(Cl)cc4)cc23)c1F [VEMURAFENIB], the Activity [1] was “Active”.

In the case of Cc1ccc(NC(=O)c2cccc(C(F)(F)F)c2)cc1-c1cc(N2CCOCC2)c(=O)n(C)c1, the clearance [2] is reported as 53 mL/min/kg, the EC50 (Calu-6) is reported as 500 nM and the Activity [3] is reported as > 99%. It also gave a bioavailability [4] of 22%, a Cmax [5] of 150 nM and a microsomal CLint [6] of 46 µL/min/mg. The Activity [7] was > 99%, the Papp A→B [8] was 20 ×10⁻⁶ cm/s and the AUC [9] was 0.438 µM·h. It also gave a microsomal CLint [10] of 51 µL/min/mg, a Papp B→A [11] of 22 ×10⁻⁶ cm/s and a solubility thermodynamic [12] of 70 µM (≈ 33 µg/mL). For the same molecule, the Activity [13] was 89%.

For Cc1ccc(NC(=O)c2cccc(C(F)(F)F)c2)cc1-c1cn(C)c(=O)c(N2CCOCC2)n1, the EC50 (Calu-6) was 4100 nM, the Papp A→B [8] was 21 ×10⁻⁶ cm/s and the microsomal CLint [10] was 110 µL/min/mg. The EC50 [14] was 200 nM, the Papp B→A [11] was 16 ×10⁻⁶ cm/s and the solubility thermodynamic [12] was 190 µM (≈ 89.8 µg/mL).

Molecule Cc1ccc(NC(=O)c2cccc(C(F)(F)F)c2)cc1-c1ccnc(N2CCOCC2)c1 has an EC50 (Calu-6) of 700 nM, an EC50 [14] of 200 nM and a Papp B→A [11] of 1.8 ×10⁻⁶ cm/s. The solubility thermodynamic [12] was < 2 µM.

For Cc1ncc(NC(=O)c2ccnc(C(F)(F)F)c2)cc1-c1cc(N2CCOCC2)c(=O)n(C)c1, the EC50 (Calu-6) was > 30000 nM, the IC50 [15] was 1 nM and the Papp A→B [8] was 3 ×10⁻⁶ cm/s. The microsomal CLint [10] was < 7.7 µL/min/mg, the EC50 [14] was 3960 nM and the Papp B→A [11] was 39 ×10⁻⁶ cm/s. For the same molecule, the solubility thermodynamic [12] was 1040 µM (≈ 492 µg/mL).

With Cc1ncc(NC(=O)c2cccc(C(F)(F)F)c2)cc1-c1cc(N2CCOCC2)c(=O)n(C)c1 the EC50 (Calu-6) was 1800 nM, the Papp A→B [8] was 7 ×10⁻⁶ cm/s and the microsomal CLint [10] was < 7.7 µL/min/mg. The EC50 [14] was 460 nM, the Papp B→A [11] was 43 ×10⁻⁶ cm/s and the solubility thermodynamic [12] was 20 µM (≈ 9.45 µg/mL).

Work on Cc1ccc(NC(=O)c2cccc(C(F)(F)F)c2)cc1-c1cc(N2CCOCC2)ncn1 yielded an EC50 (Calu-6) of 5200 nM, a microsomal CLint [6] of 79 µL/min/mg and a Papp A→B [8] of 19 ×10⁻⁶ cm/s. For the same molecule, the microsomal CLint [10] was 43 µL/min/mg, the Papp B→A [11] was 38 ×10⁻⁶ cm/s and the solubility thermodynamic [12] was 16 µM (≈ 7.08 µg/mL).

For Cc1ncc(NC(=O)c2cccc(C(F)(F)F)c2)cc1-c1cnc(OCCO)c(N2CCOCC2)c1, the EC50 (Calu-6) was 2500 nM, the Papp A→B [8] was 5 ×10⁻⁶ cm/s and the Papp B→A [11] was 45 ×10⁻⁶ cm/s. The solubility thermodynamic [12] was 24 µM (≈ 12.1 µg/mL).

Cc1ccc(C(=O)Nc2cccc(C(C)(C)C)c2)cc1-c1cc(N2CCOCC2)ncn1 gave an EC50 (Calu-6) of 6400 nM, an IC50 [15] of 0.5 nM and a microsomal CLint [6] of 210 µL/min/mg. It also gave a Papp A→B [8] of 15 ×10⁻⁶ cm/s, a microsomal CLint [10] of 170 µL/min/mg and an EC50 [14] of 200 nM. For the same molecule, the Papp B→A [11] was 15 ×10⁻⁶ cm/s and the solubility thermodynamic [12] was 20 µM (≈ 8.61 µg/mL).

COc1ncc(-c2cc(NC(=O)c3cccc(C(F)(F)F)c3)cnc2C)cc1N1CCOCC1 gave an EC50 (Calu-6) of 1600 nM, a Papp A→B [8] of 16 ×10⁻⁶ cm/s and a Papp B→A [11] of 14 ×10⁻⁶ cm/s. The solubility thermodynamic [12] was < 2 µM.

Molecule Cc1ccc(C(=O)Nc2cccc(C(F)(F)F)c2)cc1-c1cc(N2CCOCC2)ncn1 has an EC50 (Calu-6) of 3100 nM, an IC50 [15] of 2 nM and an EC50 [14] of 700 nM.

In the case of Cc1ncc(NC(=O)c2cccc(C(F)(F)F)c2)cc1-c1cnc(OC(C)C)c(N2CCOCC2)c1, the EC50 (Calu-6) is reported as 2900 nM and the solubility thermodynamic [12] is reported as < 2 µM.
